Data from article PMC12040169 (PLOS Biology, 2025).

Assay: in vitro
Conditions: human, hela cells, % viability

| SMILES | viability at 28.5 h, 10 µM |
| --- | --- |
| CN1CCCN(c2cncc(-c3cccc(OC(F)(F)F)c3)n2)CC1 [CBK065949] | 102% |
| C[C@H](Nc1cncc(-c2ccc3c(c2)OCO3)n1)c1ccccc1 [CBK065962] | 90.3% |
| Cc1ccc(-c2cncc(NCc3cccs3)n2)cc1C [CBK065967] | 106% |
| CCC(CO)Nc1cncc(-c2ccc3c(c2)OCO3)n1 (stereo not shown) [CBK065970] | 98.4% |
| CCOc1cccc(-c2cncc(N3CCN(c4ccccn4)CC3)n2)c1 [CBK065985] | 91.5% |
| Cc1ccc(-c2cncc(N(C)CCN(C)C)n2)cc1C [CBK065990] | 112% |
| CCOc1cccc(-c2cncc(N3CCCC3CO)n2)c1 (stereo not shown) [CBK066004] | 89.7% |
| C[C@H](Nc1cncc(-c2cccc(C(=O)NCCO)c2)n1)c1ccccc1 [CBK066007] | 108% |
| COc1ncc(-c2cncc(Nc3cccc(C#N)c3)n2)c(OC)n1 [CBK066022] | 89.7% |
| N#Cc1cccc(Nc2cncc(-c3cccs3)n2)c1 [CBK066030] | 95.4% |
| CCOc1cccc(-c2cncc(NCc3cccs3)n2)c1 [CBK066034] | 104% |
| CC(C)[C@@H](CO)Nc1cncc(-c2ccc(O)cc2)n1 [CBK066038] | 97.8% |
| c1ccc2oc(-c3cncc(NCCCN4CCOCC4)n3)cc2c1 [CBK066045] | 92.9% |
| CC(=O)Nc1ccc(-c2cncc(N3CCN(C(=O)c4ccco4)CC3)n2)cc1 [CBK066065] | 99.3% |
| COc1ccc(N2CCN(c3cncc(-c4cccnc4)n3)CC2)cc1OC [CBK066086] | 90.5% |
| COc1ccc(-c2cncc(N3CCN(c4cccc5[nH]ccc45)CC3)n2)cc1 [CBK066087] | 97.2% |
| CCCC/C=C/c1cncc(N2CCN(Cc3ccccn3)CC2)n1 [CBK066096] | 93.4% |
| CCN(CC)CCN1CCN(c2cncc(-c3cccc(/C=C/C(=O)O)c3)n2)CC1 [CBK066097] | 96.6% |
| Clc1cccc(-c2cncc(N3CCN(c4ccncc4)CC3)n2)c1 [CBK066099] | 95.4% |
| c1ccc(N2CCN(c3cncc(-c4ccc5ccccc5c4)n3)CC2)nc1 [CBK066104] | 100% |
| COc1ccc(N2CCN(c3cncc(-c4cccc(N)c4)n3)CC2)cc1OC [CBK066126] | 94.3% |
| COCCNc1nc(-c2ccc3ccccc3c2)cn2ccnc12 [CBK066138] | 103% |
| FC(F)(F)c1cc(-c2cn3ccnc3c(NCCc3cccnc3)n2)cc(C(F)(F)F)c1 [CBK066146] | 98.1% |

| SMILES | viability at 28.5 h, 10 µM |
| --- | --- |
| CC(C)[C@H](CO)Nc1nc(-c2ccc(N3CCOCC3)cc2)cn2ccnc12 [CBK066151] | 108% |
| COc1cccc(OC)c1-c1cn2ccnc2c(NCCc2ccccn2)n1 [CBK066173] | 109% |
| COc1cc(-c2cn3ccnc3c(NC3CC3)n2)cc(OC)c1OC [CBK066184] | 90% |
| CCCC/C=C/c1cn2ccnc2c(Nc2cccc(OCC(=O)N(C)C)c2)n1 [CBK066185] | 108% |
| COc1cc(-c2cn3ccnc3c(N(C)CCN(C)C)n2)cc(OC)c1OC [CBK066196] | 100% |
| CCCC/C=C/c1cn2ccnc2c(N2CCN(c3ccccn3)CC2)n1 [CBK066224] | 94% |
| COc1ccc(-c2cn3ccnc3c(N3CCCCC3CO)n2)cc1OC (stereo not shown) [CBK066230] | 107% |
| CCCC/C=C/c1cn2ccnc2c(NCCc2cccnc2)n1 [CBK066235] | 105% |
| CCN(CCO)c1ccc(Nc2nc(-c3cccc4ccccc34)cn3ccnc23)cc1 [CBK066243] | 87.9% |
| Clc1cccc(Nc2nc(Br)cn3ccnc23)c1 [CBK066260] | 80.6% |
| COc1ccc(-c2cn3ccnc3c(Nc3ccc(N4CCOCC4)cc3)n2)cc1 [CBK066265] | 98.5% |
| O=C(O)/C=C/c1cccc(-c2cn3ccnc3c(NCc3cccnc3)n2)c1 [CBK066283] | 98.8% |
| Brc1cccc(-c2cn3ccnc3c(NC3CCOCC3)n2)c1 [CBK066291] | 101% |
| O=C(O)/C=C/c1cccc(-c2cn3ccnc3c(N3CCN(c4ccncc4)CC3)n2)c1 [CBK066326] | 94.8% |
| CCCC/C=C/c1cn2ccnc2c(NCc2cc(OC)c(OC)c(OC)c2)n1 [CBK066331] | 93.1% |
| CN1CCN(c2nc(-c3ccccc3CO)cn3ccnc23)CC1 [CBK066347] | 87.1% |
| COc1ccc(Nc2nc(-c3cc(C(C)C)ccc3OC)cn3ccnc23)cn1 [CBK066354] | 84.3% |
| FC(F)(F)c1cc(-c2cn3ccnc3c(Nc3ccc4[nH]ccc4c3)n2)cc(C(F)(F)F)c1 [CBK066356] | 91.7% |
| CN(C)CCNC(=O)c1cccc(-c2cn3ccnc3c(NCc3ccccc3)n2)c1 [CBK066365] | 102% |
| COc1ccc(C(C)C)cc1-c1cn2ccnc2c(N(C)CCN(C)C)n1 [CBK066368] | 94.8% |
| OCCNc1nc(-c2ccccc2)cn2ccnc12 [CBK066379] | 97.6% |
| CN(C)CCN(C)c1nc(-c2ccc3c(c2)OCO3)cn2ccnc12 [CBK066381] | 110% |
| CN1CCN(c2nc(-c3cc4ccccc4s3)cn3ccnc23)CC1 [CBK066388] | 106% |

| SMILES | viability at 28.5 h, 10 µM |
| --- | --- |
| FC(F)(F)c1cc(-c2cn3ccnc3c(N3CCOCC3)n2)cc(C(F)(F)F)c1 [CBK066396] | 93.4% |
| COc1cccc(OC)c1-c1cn2ccnc2c(N(C)CCN(C)C)n1 [CBK066398] | 97.3% |
| COCCNc1nc(-c2cccs2)cn2ccnc12 [CBK066408] | 99.3% |
| COCCNc1nc(-c2cccc(F)c2)cn2ccnc12 [CBK066465] | 98.4% |
| CCNc1nc(-c2ccc(Oc3ccccc3)cc2)cn2ccnc12 [CBK066467] | 94.6% |
| CN(C)CCN(C)c1nc(-c2ccc(Oc3ccccc3)cc2)cn2ccnc12 [CBK066469] | 99.8% |
| FC(F)(F)c1cccc(-c2cn3ccnc3c(NCCc3ccccn3)n2)c1 [CBK066491] | 95.4% |
| CCOc1cccc(-c2cn3ccnc3c(Nc3ccc(Cl)cc3)n2)c1 [CBK066505] | 92.1% |
| c1ccc(Nc2nc(-c3cccs3)cn3ccnc23)cc1 [CBK066513] | 83.7% |
| CN1CCCN(c2nc(-c3cccc(C(F)(F)F)c3)cn3ccnc23)CC1 [CBK066519] | 92% |
| c1ccc(N2CCN(c3nc(-c4ccoc4)cn4ccnc34)CC2)nc1 [CBK066522] | 99.7% |
| Cc1csc(-c2cn3ccnc3c(N3CCN(c4ccccn4)CC3)n2)c1 [CBK066530] | 95.6% |
| CSc1ccc(-c2cn3ccnc3c(Nc3ccccc3)n2)cc1 [CBK066537] | 91.3% |
| OCCN1CCN(c2nc(-c3cc(Cl)cc(Cl)c3)cn3ccnc23)CC1 [CBK066558] | 94.1% |
| Nc1ccc(-c2cn3ccnc3c(NCc3cccs3)n2)cc1 [CBK066564] | 95.5% |
| CCOc1cccc(-c2cn3ccnc3c(N(C)CCN(C)C)n2)c1 [CBK066569] | 89.7% |
| CN1CCCN(c2nc(-c3cccs3)cn3ccnc23)CC1 [CBK066652] | 89.5% |
| CCSc1ccc(-c2cn3ccnc3c(N3CCN(CCN(C)C)CC3)n2)cc1 [CBK066662] | 92.8% |
| Nc1ccc(-c2cn3ccnc3c(NCC3CC3)n2)cc1 [CBK066677] | 101% |
| c1cncc(CNc2nc(-c3cccs3)cn3ccnc23)c1 [CBK066687] | 104% |
| Fc1ccc(-c2cn3ccnc3c(NC3CC3)n2)cc1F [CBK066692] | 101% |
| Cn1ccc2cc(-c3cn4ccnc4c(N4CCOCC4)n3)ccc21 [CBK066696] | 89.1% |
| c1csc(-c2cn3ccnc3c(NC3CC3)n2)c1 [CBK066712] | 108% |

| SMILES | viability at 28.5 h, 10 µM |
| --- | --- |
| CCOc1cccc(-c2cn3ccnc3c(NC3CC3)n2)c1 [CBK066736] | 91.6% |
| Cc1cc(-c2cn3ccnc3c(NC3CC3)n2)cc(C)c1O [CBK066747] | 86.5% |
| c1csc(-c2cn3ccnc3c(NCC3CC3)n2)c1 [CBK066754] | 93.7% |
| O=C(NCCCNc1ccc([N+](=O)[O-])cc1)c1cccs1 [CBK066825] | 94.1% |
| COC(=O)c1sccc1NC(=O)COc1ccc([N+](=O)[O-])cc1Cl [CBK066828] | 109% |
| CCOC(=O)c1c(N)sc(C(=O)Nc2cccc([N+](=O)[O-])c2)c1C [CBK066829] | 91.2% |
| O=C(Nc1cc(Cl)cc(Cl)c1)c1ccc([N+](=O)[O-])s1 [CBK066840] | 95.2% |
| COC(=O)c1cc(Br)c(NC(=O)c2cccs2)cc1OC [CBK066842] | 86.6% |
| O=C(O)c1sccc1Oc1ccc(F)cc1[N+](=O)[O-] [CBK066847] | 112% |
| O=C(Nc1cccc(F)c1C(=O)Nc1ccc(F)cc1F)c1cccs1 [CBK066849] | 87.3% |
| N#Cc1ccc(SCCOC(=O)c2cccs2)c([N+](=O)[O-])c1 [CBK066853] | 99% |
| N#Cc1cccc(NC(=O)c2cccs2)c1 [CBK066855] | 96.2% |
| Cc1cc(N2CCOCC2)c2c(N)c(Br)cc(C)c2n1 [CBK066880] | 73% |
| O=C(c1c(-c2ccccc2)nnc2ccccc12)N1CCN(CCO)CC1 [CBK066882] | 87.3% |
| CC(C)CN(CC(N)=O)CC(=O)NC1(c2ccccc2)CCC1 [CBK066883T] | 88.9% |
| CC(=O)N1CCN(c2c(-c3ccccc3)nnc3ccccc23)CC1 [CBK066889] | 91.2% |
| Cc1cc(N2CCNCC2)c2ccccc2n1 [CBK066895] | 86.1% |
| c1ccc2c(N3CCCCC3)cnnc2c1 [CBK066897] | 99.2% |
| CN(C)CCNc1cc(-c2ccncc2)nc2ccccc12 [CBK066898B] | 90.4% |
| CC1CCN(c2nc(-c3ccccc3O)nc3ccccc23)CC1 [CBK066899] | 109% |
| Cc1ccc(-c2cc(C(=O)N3CCOCC3)c3cc(Br)ccc3n2)cc1 [CBK066901] | 86.4% |
| COc1ccc([C@]23CC[C@H](NC(=O)Nc4ccc(F)cc4F)C[C@H]2N(C)CC3)cc1OC [CBK066917T] | 90.6% |
